In ChEMBL document CHEMBL5291721, “A preclinical secondary pharmacology resource illuminates target-adverse drug reaction associations of marketed drugs” (Nat Commun, 2023):

Tests used:
[1] = target: 3',5'-cyclic-AMP phosphodiesterase 4D (Homo sapiens, UniProt Q08499); type: functional
Adenosine receptor A2a = Adenosine receptor A2a (Homo sapiens, UniProt P29274)
[2] = target: T1, 5-hydroxytryptamine receptor 1A (Homo sapiens, UniProt P08908); type: functional, cell-based
T1 sequence (P08908 whole entry): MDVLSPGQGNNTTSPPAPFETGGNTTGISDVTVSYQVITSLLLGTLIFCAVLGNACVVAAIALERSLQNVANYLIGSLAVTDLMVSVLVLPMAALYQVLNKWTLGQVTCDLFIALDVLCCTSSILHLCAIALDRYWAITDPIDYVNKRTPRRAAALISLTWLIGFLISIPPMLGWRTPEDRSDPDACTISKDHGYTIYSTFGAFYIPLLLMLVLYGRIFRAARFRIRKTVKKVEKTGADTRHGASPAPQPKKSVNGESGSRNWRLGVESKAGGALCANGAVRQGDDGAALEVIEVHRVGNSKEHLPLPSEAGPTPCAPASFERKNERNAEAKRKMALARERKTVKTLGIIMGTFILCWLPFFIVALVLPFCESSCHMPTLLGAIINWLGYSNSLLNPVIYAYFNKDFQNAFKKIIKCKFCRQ

[3] = target: 5-hydroxytryptamine receptor 2B (Homo sapiens, UniProt P41595); type: functional, cell-based
[4] = target: Delta-type opioid receptor (Homo sapiens, UniProt P41143)
[5] = target: T2, Neuropeptide Y receptor type 1 (Homo sapiens, UniProt P25929)
T2 sequence (P25929 whole entry): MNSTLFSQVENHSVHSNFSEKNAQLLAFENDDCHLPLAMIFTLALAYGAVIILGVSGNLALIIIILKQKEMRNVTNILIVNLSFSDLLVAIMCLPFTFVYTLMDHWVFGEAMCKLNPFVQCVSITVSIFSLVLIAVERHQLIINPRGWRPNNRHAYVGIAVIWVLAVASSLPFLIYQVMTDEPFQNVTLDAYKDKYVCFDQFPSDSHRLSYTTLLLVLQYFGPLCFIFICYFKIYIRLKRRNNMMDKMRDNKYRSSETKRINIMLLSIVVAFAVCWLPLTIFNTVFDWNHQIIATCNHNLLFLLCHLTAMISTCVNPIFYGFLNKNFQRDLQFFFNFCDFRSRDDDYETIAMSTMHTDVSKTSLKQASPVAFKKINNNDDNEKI

[6] = target: T3, Gastrin/cholecystokinin type B receptor (Homo sapiens, UniProt P32239)
T3 sequence (P32239 whole entry): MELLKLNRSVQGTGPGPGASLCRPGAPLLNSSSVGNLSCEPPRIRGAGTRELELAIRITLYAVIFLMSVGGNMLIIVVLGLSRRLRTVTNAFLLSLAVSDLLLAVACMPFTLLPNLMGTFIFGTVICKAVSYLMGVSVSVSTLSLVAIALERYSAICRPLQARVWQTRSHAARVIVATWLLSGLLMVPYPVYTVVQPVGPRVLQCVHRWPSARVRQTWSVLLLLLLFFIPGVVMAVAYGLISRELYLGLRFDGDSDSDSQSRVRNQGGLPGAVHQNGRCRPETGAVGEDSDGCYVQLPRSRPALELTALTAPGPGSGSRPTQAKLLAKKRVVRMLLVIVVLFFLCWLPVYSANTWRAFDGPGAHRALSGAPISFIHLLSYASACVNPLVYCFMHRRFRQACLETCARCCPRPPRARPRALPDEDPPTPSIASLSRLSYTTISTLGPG

Mu-type opioid receptor = Mu-type opioid receptor (Homo sapiens, UniProt P35372)
[7] = target: T4, Alpha-1A adrenergic receptor (Homo sapiens, UniProt P35348); type: functional, cell-based
T4 sequence (P35348 whole entry): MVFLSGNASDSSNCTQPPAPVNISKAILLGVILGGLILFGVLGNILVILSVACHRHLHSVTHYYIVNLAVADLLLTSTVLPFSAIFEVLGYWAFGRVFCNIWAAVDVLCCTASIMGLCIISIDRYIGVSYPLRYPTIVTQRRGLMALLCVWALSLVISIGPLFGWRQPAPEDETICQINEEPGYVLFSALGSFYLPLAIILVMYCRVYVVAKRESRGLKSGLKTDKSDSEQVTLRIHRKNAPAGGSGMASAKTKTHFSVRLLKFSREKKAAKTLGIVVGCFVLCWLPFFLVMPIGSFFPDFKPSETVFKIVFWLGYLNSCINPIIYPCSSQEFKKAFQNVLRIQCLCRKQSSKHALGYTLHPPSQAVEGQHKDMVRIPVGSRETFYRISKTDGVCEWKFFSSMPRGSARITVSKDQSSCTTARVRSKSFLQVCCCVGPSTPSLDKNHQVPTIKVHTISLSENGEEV

[8] = target: T4, Alpha-1A adrenergic receptor; type: functional, cell-based; remark: listed apart in the source
[9] = target: Prostaglandin G/H synthase 1 (Homo sapiens, UniProt P23219); type: functional
Also: assay procedure not described here.

Chain of Delta-type opioid receptor (P41143 whole entry): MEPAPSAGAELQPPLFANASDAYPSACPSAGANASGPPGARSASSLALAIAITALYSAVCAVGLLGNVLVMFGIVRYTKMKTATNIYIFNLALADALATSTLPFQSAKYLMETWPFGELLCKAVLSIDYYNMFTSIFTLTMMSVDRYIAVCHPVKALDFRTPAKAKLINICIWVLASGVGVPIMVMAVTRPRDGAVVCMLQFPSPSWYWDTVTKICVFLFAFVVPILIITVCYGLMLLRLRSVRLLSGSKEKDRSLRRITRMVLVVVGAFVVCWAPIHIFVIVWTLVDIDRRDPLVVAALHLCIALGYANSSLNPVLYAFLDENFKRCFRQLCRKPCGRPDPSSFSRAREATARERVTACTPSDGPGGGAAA
Chain of 5-hydroxytryptamine receptor 2B (P41595 whole entry): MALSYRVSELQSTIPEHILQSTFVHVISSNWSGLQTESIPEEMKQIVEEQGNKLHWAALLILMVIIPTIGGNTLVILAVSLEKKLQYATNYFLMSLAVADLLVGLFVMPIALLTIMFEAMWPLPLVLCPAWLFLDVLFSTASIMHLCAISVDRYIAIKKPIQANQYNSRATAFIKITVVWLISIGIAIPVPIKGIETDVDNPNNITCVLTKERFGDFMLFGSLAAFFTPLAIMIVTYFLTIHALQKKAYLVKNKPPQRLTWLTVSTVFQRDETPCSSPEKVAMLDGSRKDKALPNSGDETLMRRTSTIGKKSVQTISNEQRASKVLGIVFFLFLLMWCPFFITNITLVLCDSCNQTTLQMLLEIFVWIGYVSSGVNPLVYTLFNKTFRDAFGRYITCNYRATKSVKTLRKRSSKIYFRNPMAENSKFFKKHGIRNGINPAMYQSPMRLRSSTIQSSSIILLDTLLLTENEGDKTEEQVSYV
Chain of Adenosine receptor A2a (P29274 whole entry): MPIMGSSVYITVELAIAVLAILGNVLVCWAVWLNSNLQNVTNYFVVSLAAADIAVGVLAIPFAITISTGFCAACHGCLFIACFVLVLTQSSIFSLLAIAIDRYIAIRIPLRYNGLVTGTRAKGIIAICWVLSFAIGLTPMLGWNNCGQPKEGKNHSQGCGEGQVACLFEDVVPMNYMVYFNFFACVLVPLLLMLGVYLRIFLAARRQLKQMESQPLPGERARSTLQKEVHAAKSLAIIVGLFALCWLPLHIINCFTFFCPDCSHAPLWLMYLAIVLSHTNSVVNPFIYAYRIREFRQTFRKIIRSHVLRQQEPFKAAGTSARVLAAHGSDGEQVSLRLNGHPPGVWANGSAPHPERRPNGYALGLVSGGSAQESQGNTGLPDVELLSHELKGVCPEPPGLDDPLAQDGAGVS
Chain of 3',5'-cyclic-AMP phosphodiesterase 4D (Q08499 whole entry): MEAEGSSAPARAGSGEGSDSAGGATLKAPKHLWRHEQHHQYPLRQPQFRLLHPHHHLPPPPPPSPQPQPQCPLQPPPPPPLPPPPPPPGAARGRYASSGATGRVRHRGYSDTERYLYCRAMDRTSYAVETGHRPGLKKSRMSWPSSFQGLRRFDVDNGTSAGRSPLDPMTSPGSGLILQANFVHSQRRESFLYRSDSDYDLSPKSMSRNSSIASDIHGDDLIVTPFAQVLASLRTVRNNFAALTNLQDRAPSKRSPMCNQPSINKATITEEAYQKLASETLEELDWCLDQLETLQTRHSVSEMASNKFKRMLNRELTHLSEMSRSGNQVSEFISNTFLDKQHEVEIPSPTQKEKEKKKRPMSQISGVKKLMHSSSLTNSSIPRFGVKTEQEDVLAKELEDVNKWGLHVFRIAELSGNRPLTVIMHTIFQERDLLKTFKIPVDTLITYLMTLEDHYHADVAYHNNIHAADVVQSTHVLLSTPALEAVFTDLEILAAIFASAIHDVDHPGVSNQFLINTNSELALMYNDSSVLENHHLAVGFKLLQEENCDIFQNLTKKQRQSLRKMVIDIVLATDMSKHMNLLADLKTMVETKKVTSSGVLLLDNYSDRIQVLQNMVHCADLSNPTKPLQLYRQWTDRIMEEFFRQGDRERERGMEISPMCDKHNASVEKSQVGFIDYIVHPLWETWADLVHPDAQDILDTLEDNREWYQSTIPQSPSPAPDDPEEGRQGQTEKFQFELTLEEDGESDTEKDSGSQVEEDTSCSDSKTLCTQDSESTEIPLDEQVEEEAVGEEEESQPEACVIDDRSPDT
Chain of Mu-type opioid receptor (P35372 whole entry): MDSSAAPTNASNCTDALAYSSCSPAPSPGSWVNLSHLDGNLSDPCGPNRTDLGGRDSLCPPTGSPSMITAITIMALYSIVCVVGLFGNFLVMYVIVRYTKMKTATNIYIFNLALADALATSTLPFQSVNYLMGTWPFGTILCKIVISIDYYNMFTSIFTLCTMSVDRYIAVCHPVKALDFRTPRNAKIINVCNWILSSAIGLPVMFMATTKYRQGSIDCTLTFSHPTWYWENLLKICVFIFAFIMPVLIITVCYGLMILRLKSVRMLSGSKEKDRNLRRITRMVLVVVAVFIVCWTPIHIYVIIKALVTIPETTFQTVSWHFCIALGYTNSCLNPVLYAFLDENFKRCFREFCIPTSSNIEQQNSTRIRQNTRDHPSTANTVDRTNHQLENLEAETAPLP
Chain of Prostaglandin G/H synthase 1 (P23219 whole entry): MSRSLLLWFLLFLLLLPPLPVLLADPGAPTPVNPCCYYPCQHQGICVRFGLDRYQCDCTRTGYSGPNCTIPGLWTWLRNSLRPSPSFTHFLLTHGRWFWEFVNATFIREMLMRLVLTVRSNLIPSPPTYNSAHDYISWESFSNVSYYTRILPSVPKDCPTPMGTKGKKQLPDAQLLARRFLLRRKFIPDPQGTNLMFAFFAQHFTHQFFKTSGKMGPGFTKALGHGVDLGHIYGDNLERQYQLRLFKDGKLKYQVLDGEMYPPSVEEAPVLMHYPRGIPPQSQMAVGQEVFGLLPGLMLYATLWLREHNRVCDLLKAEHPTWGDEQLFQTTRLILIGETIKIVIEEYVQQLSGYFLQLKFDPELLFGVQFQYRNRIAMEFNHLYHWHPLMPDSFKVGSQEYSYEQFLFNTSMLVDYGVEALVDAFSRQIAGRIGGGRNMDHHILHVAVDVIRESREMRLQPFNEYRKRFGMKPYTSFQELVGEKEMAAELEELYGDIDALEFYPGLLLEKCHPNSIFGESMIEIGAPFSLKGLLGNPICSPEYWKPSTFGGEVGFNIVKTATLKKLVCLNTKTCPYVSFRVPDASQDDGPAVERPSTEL

SMILES	AC50 [1]	AC50 (Adenosine receptor A2a)	AC50 [2]	AC50 [3]	AC50 [4]	AC50 [5]	AC50 [6]	AC50 (Mu-type opioid receptor)	AC50 [7]	AC50 [8]	AC50 [9]
C[N+](C)(C)CCOP(=O)([O-])OC[C@H](O)CO	> 30 µM	> 30 µM	> 30 µM	> 30 µM	> 30 µM	> 30 µM	> 30 µM	–	–	–	–
CN(C)Cc1nnc2n1-c1ccc(Cl)cc1C(c1ccccc1)=NC2 [ADINAZOLAM]	> 30 µM	> 10 µM	> 10 µM	> 10 µM	> 30 µM	> 10 µM	–	> 30 µM	–	–	–
CN(C)C/C=C/C(=O)Nc1cc2c(Nc3ccc(F)c(Cl)c3)ncnc2cc1O[C@H]1CCOC1 [AFATINIB]	> 30 µM	> 30 µM	> 30 µM	> 30 µM	> 30 µM	> 30 µM	> 30 µM	–	–	–	–
CC1=C(C(=O)OC(C)C)C(c2cccc([N+](=O)[O-])c2)C(C(=O)OC2CN(C(c3ccccc3)c3ccccc3)C2)=C(N)N1 (stereo not given) [AZELNIDIPINE]	6.6 µM	> 30 µM	> 30 µM	> 30 µM	> 30 µM	> 30 µM	> 30 µM	–	–	–	–
CCOC(=O)c1ccc(N)cc1 [BENZOCAINE]	> 30 µM	> 10 µM	> 10 µM	> 10 µM	> 30 µM	> 10 µM	–	> 30 µM	–	–	–
CC(C)(Oc1ccc(CCNC(=O)c2ccc(Cl)cc2)cc1)C(=O)O [BEZAFIBRATE]	> 30 µM	> 10 µM	> 30 µM	> 10 µM	> 30 µM	> 10 µM	–	> 30 µM	–	–	–
O=C(O)COCCN1CCN(C(c2ccccc2)c2ccc(Cl)cc2)CC1 (stereo not given) [CETIRIZINE]	> 30 µM	> 30 µM	> 10 µM	–	> 30 µM	> 30 µM	> 30 µM	–	> 30 µM	> 30 µM	–
C=C1CC[C@H](O)C/C1=C/C=C1\CCC[C@]2(C)[C@@H]([C@H](C)CCCC(C)C)CC[C@@H]12 [CHOLECALCIFEROL]	–	–	–	–	–	–	–	–	> 30 µM	> 30 µM	12.3 µM
C[C@H](CCC(=O)O)[C@H]1CC[C@H]2[C@@H]3[C@H](O)C[C@@H]4C[C@H](O)CC[C@]4(C)[C@H]3C[C@H](O)[C@]12C [CHOLIC ACID]	–	–	–	–	–	–	–	–	> 30 µM	> 30 µM	–
C/C=C(/C(=C/C)c1ccc(O)cc1)c1ccc(O)cc1 [DIENESTROL]	> 30 µM	> 30 µM	> 10 µM	> 10 µM	21 µM	> 10 µM	–	> 30 µM	–	–	–
CN[C@]1(c2ccccc2Cl)CCCCC1=O [ESKETAMINE]	> 30 µM	> 30 µM	> 30 µM	> 30 µM	> 30 µM	> 30 µM	> 30 µM	–	–	–	–
COc1ccc([C@@H]2CC(=O)c3c(O)cc(O)cc3O2)cc1O [HESPERETIN]	30 µM	> 10 µM	> 10 µM	> 10 µM	> 30 µM	> 10 µM	–	> 30 µM	–	–	–
CNCCc1ccc(OC(=O)C(C)C)c(OC(=O)C(C)C)c1 [IBOPAMINE]	> 30 µM	> 30 µM	> 30 µM	> 30 µM	> 30 µM	> 30 µM	> 30 µM	–	–	–	–
CCOC(=O)C1=C(C)NC(C)=C(C(=O)OCC)C1c1ccccc1/C=C/C(=O)OC(C)(C)C [LACIDIPINE]	12 µM	> 30 µM	> 30 µM	> 30 µM	> 30 µM	> 30 µM	> 30 µM	–	–	–	–
CCC[C@@H]1C[C@@H](C(=O)N[C@@H]([C@H]2O[C@H](SC)[C@H](O)[C@@H](O)[C@H]2O)[C@@H](C)O)N(C)C1 [LINCOMYCIN]	> 30 µM	> 10 µM	> 30 µM	> 30 µM	> 30 µM	> 10 µM	–	> 30 µM	–	–	–
COC(=O)C1=C(C)NC(C)=C(C(=O)OCCN2CCN(C(c3ccccc3)c3ccccc3)CC2)C1c1cccc([N+](=O)[O-])c1 (stereo not given) [MANIDIPINE 6300]	> 30 µM	> 30 µM	> 30 µM	> 30 µM	> 30 µM	> 30 µM	> 30 µM	–	–	–	–
Cc1ccccc1N1C(=O)c2cc(S(N)(=O)=O)c(Cl)cc2NC1C (stereo not given) [METOLAZONE]	> 30 µM	> 10 µM	> 10 µM	> 10 µM	> 30 µM	> 10 µM	–	> 30 µM	–	–	–
O=C(O)c1cccnc1Nc1cccc(C(F)(F)F)c1 [NIFLUMIC ACID]	> 30 µM	> 10 µM	> 10 µM	> 10 µM	> 30 µM	> 10 µM	–	> 30 µM	–	–	–
O=C1c2cccc3c2[C@H](CCC3)CN1[C@@H]1CN2CCC1CC2 [PALONOSETRON]	> 30 µM	> 30 µM	> 30 µM	> 30 µM	> 30 µM	> 30 µM	> 30 µM	–	–	–	–
OC[C@H]1O[C@@H](n2cnc3c2NC=NC[C@H]3O)C[C@@H]1O [PENTOSTATIN]	> 30 µM	3.4 µM	> 30 µM	> 30 µM	> 30 µM	> 30 µM	> 30 µM	–	–	–	–
Cc1cccc(C)c1NC(=O)CC12CCCN1CCC2 [PILSICAINIDE]	> 30 µM	> 30 µM	> 30 µM	> 30 µM	> 30 µM	> 30 µM	> 30 µM	–	–	–	–
CC(C)c1cccc(C(C)C)c1O [PROPOFOL]	> 30 µM	> 30 µM	> 30 µM	> 30 µM	> 30 µM	–	–	> 30 µM	–	–	–
CCCN1CC(NS(=O)(=O)N(CC)CC)CC2Cc3c(O)cccc3CC21 (stereo not given) [QUINAGOLIDE]	> 30 µM	> 30 µM	1.1 µM	–	> 30 µM	> 30 µM	> 30 µM	–	–	–	–
C[C@]12CCC(=O)C[C@@H]1CC[C@@H]1[C@@H]2CC[C@]2(C)[C@@H](O)CC[C@@H]12 [STANOLONE]	> 30 µM	> 30 µM	> 30 µM	> 30 µM	> 30 µM	> 30 µM	> 30 µM	–	–	–	–
O=C1OC(OC(=O)c2cccnc2Nc2cccc(C(F)(F)F)c2)c2ccccc21 (stereo not given) [TALNIFLUMATE]	5.2 µM	> 30 µM	> 30 µM	> 30 µM	> 30 µM	> 30 µM	> 30 µM	–	–	–	–
Cc1ccc(C(=O)C(C)CN2CCCCC2)cc1 (stereo not given) [TOLPERISONE]	–	–	–	–	–	–	–	–	> 30 µM	> 30 µM	> 30 µM
CCOC(=O)c1c(CSc2ccccc2)n(C)c2cc(Br)c(O)c(CN(C)C)c12 [UMIFENOVIR]	5.6 µM	23 µM	> 30 µM	> 30 µM	> 30 µM	> 30 µM	> 30 µM	–	–	–	–
